Source: ChEMBL document CHEMBL1151685, “Structure-activity relationship of antibacterial chalcones” (2008)

Key:
Format in all cases: functional
Pseudomonas aeruginosa = experiment: Antibacterial activity against Pseudomonas aeruginosa ATCC 27853 after 24 hrs by microdilution broth method; conditions: ATCC 27853, 24 h
Escherichia coli = experiment: Antibacterial activity against Escherichia coli ATCC 25922 after 24 hrs by microdilution broth method; conditions: ATCC 25922, 24 h
Bacillus cereus = experiment: Antibacterial activity against Bacillus cereus ATCC 11778 after 24 hrs by microdilution broth method; conditions: ATCC 11778, 24 h
Staphylococcus aureus = experiment: Antibacterial activity against Staphylococcus aureus ATCC 25923 after 24 hrs by microdilution broth method; conditions: ATCC 25923, 24 h

COc1ccc(C(=O)/C=C/c2ccc(O)cc2)cc1
2000 µg/mL: MBC (Pseudomonas aeruginosa) | MBC (Escherichia coli) | MBC (Bacillus cereus) | MIC (Bacillus cereus) | MBC (Staphylococcus aureus) | MIC (Staphylococcus aureus)
1000 µg/mL: MIC (Pseudomonas aeruginosa) | MIC (Escherichia coli)

O=C(CCc1ccccc1O)c1ccccc1
2000 µg/mL: MBC (Pseudomonas aeruginosa) | MBC (Escherichia coli) | MIC (Escherichia coli)
1000 µg/mL: MIC (Pseudomonas aeruginosa)
500 µg/mL: MBC (Bacillus cereus) | MIC (Bacillus cereus) | MBC (Staphylococcus aureus) | MIC (Staphylococcus aureus)

COc1ccc(C(=O)/C=C/c2ccccc2O)c(O)c1CC=C(C)C
2000 µg/mL: MBC (Pseudomonas aeruginosa) | MIC (Pseudomonas aeruginosa) | MBC (Escherichia coli) | MIC (Escherichia coli) | MBC (Bacillus cereus) | MIC (Bacillus cereus) | MIC (Staphylococcus aureus)
> 2000 µg/mL: MBC (Staphylococcus aureus)

COc1cc(OC)c(C(=O)CCc2ccc3c(c2)OCO3)cc1OC
2000 µg/mL: MBC (Pseudomonas aeruginosa) | MIC (Pseudomonas aeruginosa) | MBC (Escherichia coli) | MIC (Escherichia coli) | MBC (Bacillus cereus) | MIC (Bacillus cereus) | MBC (Staphylococcus aureus) | MIC (Staphylococcus aureus)

COc1ccc(/C=C/C(=O)c2ccc(OC)c(CC=C(C)C)c2O)cc1
2000 µg/mL: MBC (Pseudomonas aeruginosa) | MIC (Pseudomonas aeruginosa) | MIC (Escherichia coli) | MBC (Bacillus cereus) | MIC (Bacillus cereus) | MBC (Staphylococcus aureus) | MIC (Staphylococcus aureus)
> 2000 µg/mL: MBC (Escherichia coli)

CC(C)=CCC/C(C)=C\Cc1c(O)ccc(C(=O)/C=C/c2ccc(O)cc2)c1O
15.6 µg/mL: MBC (Bacillus cereus) | MIC (Bacillus cereus)
2000 µg/mL: MBC (Pseudomonas aeruginosa) | MBC (Escherichia coli)
31.2 µg/mL: MBC (Staphylococcus aureus) | MIC (Staphylococcus aureus)
1000 µg/mL: MIC (Pseudomonas aeruginosa) | MIC (Escherichia coli)

COc1ccc(C(=O)/C=C/c2cccc(O)c2)c(O)c1CC=C(C)C
2000 µg/mL: MBC (Pseudomonas aeruginosa) | MIC (Pseudomonas aeruginosa) | MBC (Escherichia coli) | MIC (Escherichia coli) | MBC (Staphylococcus aureus) | MIC (Staphylococcus aureus)
1000 µg/mL: MBC (Bacillus cereus) | MIC (Bacillus cereus)

COc1ccc(C(=O)/C=C/c2ccc(O)cc2)c(O)c1CC=C(C)C
3.9 µg/mL: MBC (Bacillus cereus) | MIC (Bacillus cereus)
7.8 µg/mL: MBC (Staphylococcus aureus) | MIC (Staphylococcus aureus)
2000 µg/mL: MBC (Pseudomonas aeruginosa) | MIC (Pseudomonas aeruginosa) | MBC (Escherichia coli) | MIC (Escherichia coli)

COc1cc(OC)c(OC)cc1/C=C/C(=O)c1cc(OC)c(OC)cc1OC
> 2000 µg/mL: MBC (Escherichia coli) | MIC (Escherichia coli) | MBC (Bacillus cereus) | MIC (Bacillus cereus) | MBC (Staphylococcus aureus) | MIC (Staphylococcus aureus)
2000 µg/mL: MBC (Pseudomonas aeruginosa) | MIC (Pseudomonas aeruginosa)

COc1ccc(/C=C/C(=O)c2c(OC)cc(OC)c(OC)c2OC(C)=O)cc1
2000 µg/mL: MBC (Pseudomonas aeruginosa) | MIC (Bacillus cereus) | MIC (Staphylococcus aureus)
1000 µg/mL: MIC (Pseudomonas aeruginosa) | MIC (Escherichia coli)
> 2000 µg/mL: MBC (Escherichia coli) | MBC (Bacillus cereus) | MBC (Staphylococcus aureus)

COc1cc(OC)c(OC)cc1/C=C/C(=O)c1ccc(OC)c(OC)c1
> 2000 µg/mL: MBC (Pseudomonas aeruginosa) | MBC (Escherichia coli) | MBC (Bacillus cereus) | MBC (Staphylococcus aureus)
1000 µg/mL: MIC (Escherichia coli)
2000 µg/mL: MIC (Pseudomonas aeruginosa) | MIC (Bacillus cereus) | MIC (Staphylococcus aureus)

CC(C)=CCOc1ccc(C(=O)/C=C/c2ccc(O)cc2)c(O)c1
1000 µg/mL: MBC (Bacillus cereus) | MIC (Bacillus cereus)
2000 µg/mL: MBC (Pseudomonas aeruginosa) | MIC (Pseudomonas aeruginosa) | MIC (Escherichia coli) | MBC (Staphylococcus aureus) | MIC (Staphylococcus aureus)
> 2000 µg/mL: MBC (Escherichia coli)

COc1ccc(/C=C/C(=O)c2cc(OC)c(OC)cc2O)cc1
> 2000 µg/mL: MBC (Pseudomonas aeruginosa) | MBC (Escherichia coli) | MBC (Bacillus cereus) | MBC (Staphylococcus aureus)
1000 µg/mL: MIC (Pseudomonas aeruginosa) | MIC (Bacillus cereus)
2000 µg/mL: MIC (Escherichia coli) | MIC (Staphylococcus aureus)

COc1cc(OC)c(C(=O)/C=C/c2ccc3c(c2)OCO3)c(OC)c1OC
> 2000 µg/mL: MBC (Bacillus cereus) | MBC (Staphylococcus aureus) | MIC (Staphylococcus aureus)
2000 µg/mL: MBC (Pseudomonas aeruginosa) | MIC (Pseudomonas aeruginosa) | MBC (Escherichia coli) | MIC (Escherichia coli) | MIC (Bacillus cereus)

COc1ccc(C(=O)/C=C/c2c(OC)cc(OC)c(OC)c2OC)cc1OC
> 2000 µg/mL: MBC (Pseudomonas aeruginosa) | MBC (Escherichia coli) | MBC (Staphylococcus aureus)
2000 µg/mL: MIC (Pseudomonas aeruginosa) | MIC (Escherichia coli) | MBC (Bacillus cereus) | MIC (Bacillus cereus) | MIC (Staphylococcus aureus)

COc1ccccc1/C=C/C(=O)c1cc(OC)c(OC)cc1OC
250 µg/mL: MBC (Bacillus cereus) | MIC (Bacillus cereus)
1000 µg/mL: MBC (Staphylococcus aureus) | MIC (Staphylococcus aureus)
2000 µg/mL: MBC (Pseudomonas aeruginosa) | MIC (Pseudomonas aeruginosa) | MBC (Escherichia coli) | MIC (Escherichia coli)

CC(C)=CCC/C(C)=C\Cc1c(O)ccc(C(=O)/C=C/c2ccc(O)c(CC=C(C)C)c2)c1O
2000 µg/mL: MBC (Pseudomonas aeruginosa) | MBC (Escherichia coli)
31.2 µg/mL: MBC (Staphylococcus aureus) | MIC (Staphylococcus aureus)
1000 µg/mL: MIC (Pseudomonas aeruginosa) | MIC (Escherichia coli)
15.6 µg/mL: MBC (Bacillus cereus) | MIC (Bacillus cereus)

COc1cc(C(=O)CCc2ccccc2)c(OC)c(CC=C(C)C)c1OC
> 2000 µg/mL: MBC (Staphylococcus aureus)
2000 µg/mL: MBC (Pseudomonas aeruginosa) | MIC (Pseudomonas aeruginosa) | MBC (Escherichia coli) | MIC (Escherichia coli) | MBC (Bacillus cereus) | MIC (Bacillus cereus) | MIC (Staphylococcus aureus)

COc1ccc(C(=O)/C=C/c2ccccc2O)cc1OC
> 2000 µg/mL: MBC (Pseudomonas aeruginosa)
1000 µg/mL: MIC (Pseudomonas aeruginosa) | MIC (Escherichia coli) | MBC (Bacillus cereus) | MIC (Bacillus cereus) | MIC (Staphylococcus aureus)
2000 µg/mL: MBC (Escherichia coli) | MBC (Staphylococcus aureus)

COc1ccc(C(=O)/C=C/c2ccccc2)cc1OC [3',4'-DIMETHOXYCHALCONE]
2000 µg/mL: MBC (Pseudomonas aeruginosa) | MIC (Escherichia coli) | MBC (Staphylococcus aureus)
1000 µg/mL: MIC (Pseudomonas aeruginosa) | MBC (Escherichia coli) | MBC (Bacillus cereus) | MIC (Bacillus cereus) | MIC (Staphylococcus aureus)

COc1ccc(/C=C/C(=O)c2ccc(OC)cc2)cc1 [4,4'-DIMETHOXYCHALCONE]
2000 µg/mL: MBC (Pseudomonas aeruginosa) | MIC (Pseudomonas aeruginosa)
> 2000 µg/mL: MBC (Escherichia coli) | MIC (Escherichia coli) | MBC (Bacillus cereus) | MIC (Bacillus cereus) | MBC (Staphylococcus aureus) | MIC (Staphylococcus aureus)

CC1(C)C=Cc2cc(C(=O)/C=C/c3ccc(O)cc3)c(O)cc2O1 [4-HYDROXYISOLONCHOCARPIN]
1000 µg/mL: MIC (Bacillus cereus) | MIC (Staphylococcus aureus)
2000 µg/mL: MIC (Pseudomonas aeruginosa) | MIC (Escherichia coli)
> 2000 µg/mL: MBC (Pseudomonas aeruginosa) | MBC (Escherichia coli) | MBC (Bacillus cereus) | MBC (Staphylococcus aureus)

CC(C)=CCOc1ccc(C(=O)/C=C/c2ccccc2)c(O)c1 [CORDOIN]
2000 µg/mL: MBC (Pseudomonas aeruginosa) | MIC (Pseudomonas aeruginosa) | MIC (Escherichia coli) | MBC (Bacillus cereus) | MIC (Bacillus cereus) | MIC (Staphylococcus aureus)
> 2000 µg/mL: MBC (Escherichia coli) | MBC (Staphylococcus aureus)

COc1ccc(C(=O)/C=C/c2ccccc2)c(O)c1CC=C(C)C [DERRICIN]
> 2000 µg/mL: MBC (Staphylococcus aureus)
2000 µg/mL: MBC (Pseudomonas aeruginosa) | MIC (Pseudomonas aeruginosa) | MBC (Escherichia coli) | MIC (Escherichia coli) | MBC (Bacillus cereus) | MIC (Bacillus cereus) | MIC (Staphylococcus aureus)

CC(C)=CCc1c(O)ccc(C(=O)/C=C/c2ccc(O)cc2)c1O [ISOBAVACHALCONE]
1000 µg/mL: MIC (Pseudomonas aeruginosa) | MBC (Escherichia coli) | MIC (Escherichia coli)
2000 µg/mL: MBC (Pseudomonas aeruginosa)
31.2 µg/mL: MBC (Bacillus cereus) | MIC (Bacillus cereus) | MBC (Staphylococcus aureus) | MIC (Staphylococcus aureus)

CC(C)=CCc1c(O)ccc(C(=O)/C=C/c2ccccc2)c1O [ISOCORDOIN]
2000 µg/mL: MIC (Pseudomonas aeruginosa) | MBC (Escherichia coli) | MIC (Escherichia coli) | MBC (Bacillus cereus) | MIC (Bacillus cereus) | MBC (Staphylococcus aureus) | MIC (Staphylococcus aureus)
1000 µg/mL: MBC (Pseudomonas aeruginosa)

O=C(/C=C/c1ccc(O)cc1)c1ccc(O)cc1O [ISOLIQUIRITIGENIN]
2000 µg/mL: MBC (Pseudomonas aeruginosa) | MIC (Pseudomonas aeruginosa) | MBC (Escherichia coli) | MIC (Escherichia coli)
62.5 µg/mL: MBC (Bacillus cereus) | MIC (Bacillus cereus) | MBC (Staphylococcus aureus) | MIC (Staphylococcus aureus)
